Assay results as given in patent US9096555B2, “Methods for treating vascular leak syndrome” (Aerpio Therapeutics, Inc., priority 2009, dated 2015).
Entries after “also recorded” stand apart in the source; their conditions may differ.

Experiments:
IL-2 induced VLS = experiment: IL-2 induced vascular leak syndrome in mice (blood pressure, shock, mortality); type: in vivo; conditions: then 20 mg/kg for 3 days
Protocol: Twenty-five mice were used for the following experiment. Five are selected as the control and received no treatment. The remaining twenty mice were divided into four groups of five mice each and dosed as follows over a period of 5 days:
Tie-2 signal amplifier at 40 mg/kg for the first 2 days, then at 20 mg/kg for 3 days.
(VSL mechanistic analysis.

[1] = test system: IL-2 induced hypotension and death; experiment: Rescue of mice from IL-2 induced hypotension and death (systolic blood pressure); type: in vivo; conditions: C3H/HeN female mice; 400,000 IU of IL-2 and 40 mg/kg D91; after 5 days of treatment; FIG. 5
Protocol: A represents the systolic blood pressure of C3H/HeN female mice treated with vehicle control. […] Measurements were taken after 5 days of treatment.
A represents 0 mg/kg D91, B represents 1 mg/kg D91, C represents 3 mg/kg D91, D represents 10 mg/kg D91, and E represents 30 mg/kg D91.

[2] = test system: LPS-induced acute kidney injury; experiment: Liposaccharide (LPS) induced vascular leak model: acute kidney injury (BUN, renal neutrophil infiltration); type: in vivo; conditions: male C57BL6 mice
Protocol: FIG. 7 depicts the level of blood urine nitrogen (BUN) in male C57BL6 mice injected i.p. with 0.2 mg E. coli lipopolysaccharides per 25 g body weight at 0 hours. Line (◯) represents mice receiving only LPS and line (●) represents mice receiving LPS and 50 mg/kg of D91 at 0, 8, and 16 hours.
FIG. 8 depicts the level of LPS-induced renal neutrophil infiltration at 24 hours in male C57BL6 mice injected i.p. with 0.2 mg E. coli lipopolysaccharides per 25 g body weight at 0 hours. A depicts the neutrophil infiltration in sham (conrol), B depicts the neutrophil infiltration in male C57BL6 mice injected i.p. with 0.2 mg E. coli lipopolysaccharides per 25 g body weight and 50 mg/kg of D91, C depicts mice receiving only LPS.
The following liposaccharide induced vascular leakage model can be used to confirm the ability of the disclosed compounds to decrease the effects of vascular leak syndrome caused by pathogens. […]
Male C57BL6 mice, 9 to 10 weeks old, were injected i.p. with 0.2 mg E. Coli lipopolysaccharide per 25 g body weight at time 0. […] Serum samples were analyzed for blood urea nitrogen (BUN) as a marker of kidney function.
Tissue samples from the animals were analyzed by high powered field microscopy to determine the number of polymorphonuclear leukocytes present.

[3] = test system: LPS-induced renal vascular leak; experiment: LPS-induced renal vascular leak, 70 kDa fluorescent fixable dextran; type: in vivo; conditions: mice; LPS at time 0, D91 at 1, 6 and 16 h; sacrifice at 24 hours; FIG. 10c
Protocol: FIG. 10a is a micrograph of a renal section from a mouse treated with vehicle control that is subsequently injected with 70 kDa fluorescent fixable dextran by intravenous catheter 2 minutes prior to sacrifice. G indicates glomerular capillaries where the dye should normally be contained.
FIG. 10b is a micrograph showing the vascular leakage in cells of a renal section from a mouse treat with LPS that is subsequently injected with 70 kDa fluorescent fixable dextran by intravenous catheter 2 minutes prior to sacrifice.
The pattern of staining in this section is similar to 10a.
Phosphatase inhibition by the disclosed PTP-β inhibitors reduces LPS-induced renal vascular leak. Mice were injected with LPS at time 0 and D91 or vehicle at 1, 6, and 16 h. Two minutes prior to sacrifice at 24 hours 70 kDa fluorescent fixable dextrans were administered by intravenous catheter. […] FIG. 10a is a micrograph of the control sample for the 70 kDa sample wherein the Letter “G” represents glomerular capillaries where the dye should normally be contained. FIG. 10b represents a renal section taken from an LPS treated animal and FIG. 10c represents a renal section taken from an animal treated with LPS and D91.

[4] = test system: pAKT and pERK1/2 in EA.hy962 cells; experiment: Western blot analysis of pAKT and pERK1/2 in EA.hy962 cells; type: cell-based; conditions: EA.hy962 cells cultured with varying amounts of D91 for 10 minutes; FIG. 9a
Protocol: FIG. 9a depicts a Western blot analysis showing the increase in pAKT and pERK1/2 when EA.hy962 cells were cultured in the presence of varying amounts of […] for 10 minutes. FIG. 9b depicts a Western blot analysis showing the levels of pAKT, pERK1/2 and β-Actin when EA.hy962 cells were cultured in the presence of 10 μg/mL […] from start (T=0) to 120 minutes.

brain edema after tMCAO = experiment: Vasogenic edema after transient focal cerebral ischemia (tMCAO); type: in vivo, Sprague-Dawley rats; conditions: rats; tMCAO 60 min; 15 mg/kg t.i.d. s.c. starting 1 hour after stroke onset; after the 48 hour MRI
Protocol: 30 adult male Sprague-Dawley rats purchased from Charles River, Germany and weighing 250-330 g were used for the experiment. Animals were housed at a standard temperature (22±1° C.) and in a light-controlled environment (lights on from 7 am to 8 pm) with ad libitum access to food and water.
Animals were grouped as follows:
• Group A: 15 rats treated with Vehicle (2 mL/kg, t.i.d., s.c.) starting 1 hour after stroke onset • Group B: 15 rats treated with AKB-9778-AS (15 mg/kg, t.i.d., s.c.) starting 1 hour after stroke onset tMCAO
Transient focal cerebral ischemia was produced by MCA occlusion in male Sprague-Dawley rats according to Koizumi with modifications (Koizumi et al., Jpn. J. Stroke 8:1-8, 1986). […] The rats were carefully monitored for possible post-surgical complications after the tMCAO. […]
D91 or vehicle was administered s.c. three times a day. […] The body weight of each animal is measured daily. […]
Tissue viability and vasogenic edema was determined using absolute T2 MRI. […] In addition to absolute T2, spin density (amount of MRI visible protons, indicator of vasogenic edema) ratio of ipsi and contralateral ROI's was determined by extrapolating signal intensity at TE=0 from multiple TE data (intercept of T2 fitting).
For the determination of infarct volume, the same acquired T2-weighted images were analyzed using in-house written Matlab based software for morphometric measurement. […]

COC(=O)N[C@@H](Cc1ccccc1)C(=O)N[C@@H](Cc1ccc(NS(=O)(=O)O)cc1)c1csc(-c2cccs2)n1 [Compound D91, 4-{(S)-2-[(S)-2-(methoxycarbonylamino)-3-phenylpropanamido]-2-[2-(thiophen-2-yl)thiazol-4-yl]ethyl}phenylsulfamic acid]
blood pressure (IL-2 induced VLS; IL-2 180,000 or 400,000 IU for 5 days plus D91 40 mg/kg first 2 days, FIG. 1): little effect on blood pressure
clinical symptoms of shock (IL-2 induced VLS; high dose IL-2 (400,000 IU, 5 days) plus D91 40 mg/kg first 2 days, FIG. 2): no signs of shock
IL-2 induced mortality (IL-2 induced VLS; high dose IL-2 (400,000 IU, 5 days) plus D91 40 mg/kg first 2 days, FIG. 3): survived
rescue from IL-2 induced hypotension and death (systolic blood pressure) [1]: rescue of mice from IL-2 induced hypotension and death
blood urine nitrogen (BUN) level ([2]; LPS 0.2 mg per 25 g i.p., D91 50 mg/kg at 0, 8 and 16 hours, at 24 hours, FIG. 7): less than 80 mg/dL
number of PMN cells present (renal neutrophil infiltration), high powered field microscopy ([2]; LPS plus D91 50 mg/kg, 24 hours, average, FIG. 8): 12
extrusion of 70 kDa fluorescent dextran dye beyond the small peritubular capillaries (renal vascular leak) [3]: vascular integrity is preserved; also recorded: reduced
pAKT and pERK1/2 (Western blot) [4]: increase
brain tissue wet weight in ischemic hemisphere (edema) (brain edema after tMCAO): significantly lower
